Results on four compounds are retold here after patent publication US20040175419A1, “Control of compactibility through cystallization” (priority 2001, published 2004).

Holding throughout (format): physicochemical
Data set [1] in a line: Agglomerate size of API crystallized at different supersaturation. As to the method: The crystallization parameters and seeding conditions (using “as is” API at 0.1-0.2%) described in the procedure outlined in Table 1 was adopted as a starting point for modifications. By changing the ratio of solvent/antisolvent (isopropyl acetate/heptane) in step 3 (Table 1) from 1.67 to 1.0 and varying the pot temperature from 80 to 50° C., the degree of supersaturation was increased by a factor of 5 (from about 3.5 to about 17.5). The materials made from these conditions are generally agglomerates formed by a cluster of primary crystals plus the conjunction material which glue these crystals together.
At low supersaturation, large agglomerates (500-1000 μm) with large primary crystals (also large) were obtained. At high supersaturation the procedure generates small agglomerates (200-300 μm) with smaller primary crystals. This is consistent with other crystallization systems, in which nucleation is rate limiting, where high supersaturation favors the formation of agglomerates and mild supersaturation results in elementary crystals. Generally, these agglomerated materials compact quite poorly and create difficulties for large scale, high speed tablet manufacture. […] The manipulation of supersaturation was consequently not pursued further. […]

The nature of data set [2]: Crystallinity by X-ray diffraction after milling. Conditions: milled API, FIG. 4. The text has this:
This amorphization through the milling process can lead to chemical instability of the API. […] This clearly illustrated that modification of the crystallization process parameters to achieve higher compactability of the API is the preferred choice.

Data set [3] is described as follows: Compactability (slope of tensile strength versus compression pressure) of 80% API powder blend compressed on an Instron. Conditions: for compactability of the powder blend: 80% bulk drug and 20% excipient. As for the experimental part: In order to evaluate the compressibility and compactability of all API lots generated by modifying the crystallization process, a blend of 80% API, 19.5% microcrystalline cellulose and 0.5% magnesium stearate was prepared by mixing in a tumble mixer for 5 minutes. Each mixture was then compressed on an Instron (Universal Stress-Strain Analyzer) using a 0.5 inch diameter tooling (upper and lower punches and die) at a speed of 100 mm/min at compression forces of 5, 10, 15, 20 and 25 kN each for a replicate of three tablets. The tablet dimensions were measured using a digital Vernier calliper and the strength of the tablets were determined using an Erweka hardness tester. The volume of the tablet can be calculated from the tablet dimensions normalized for the true density of the mixture being compressed. The compressibility curves are generated by plotting the solid fraction of the tablet generated at each compression pressure versus the respective compression pressure. The area under such a curve represents the extent of volume reduction. The force required to break the tablets is normalized for the area of the tablet to obtain the tensile strength value. Slopes for profiles of tensile strength versus the compression pressure represent the compactability of the material while the area under the curve of tensile strength versus the solid fraction of the tablets represents the extent of compaction or toughness of the material.

The nature of data set [4]: Bonding Index calculated from tensile strength and dynamic indentation hardness. The text has this: The Bonding Index of the material can be calculated from the tensile strength measurements as well as the dynamic indentation hardness measurements described above using the equation shown below: [formula]
The highest bonding index value observed today is that of microcrystalline cellulose Avicel PH 101 which is 0.04. The bonding index of Lot # 2 was 0.034±0.001.

Data set [5] in a line: Solid-state stability of crystal forms. Conditions: compared with forms 5, 6, 7. The text has this: Due to the unique structure of the API material at least four different groups of crystal structures were observed (forms 4, 5, 6, 7) and analyzed by single crystal x-ray. […] Orthorhombic Form 6 consisted of a group of isostructural (1:1) solvates which accommodates solvents such as EtOAc, acetone and MEK. […] An exhaustive study of API crystallization on the feasibility of various solvents, control of polymorphs, and robustness of process concluded that the selected form could be consistently produced and kept stable in iPrOAc (or BuOAc)/Heptane (or Cyclohexane), following which a reproducible crystallization procedure in the iPrOAc/heptane solvent system was developed and implemented. This procedure, associated with the aminolysis of penultimate compound (Chemical Abstracts Systematic Name, (αS)-α-(Benzoylthio)-3,4,4-trimethyl-2,5-dioxo-1-imidazolidinebutanoyl-L-leucyl-N,3-dimethyl-L-valinamide), is successful in purging undesirable side products/impurities such as α,α′-Dithiobis[N-[1-[[[2,2-dimethyl-1-[(methylamino)carbonyl]propyl]amino]-carbonyl]-3-methylbutyl]-3,4,4-trimethyl-2,5-dioxo-1-imidazolidinebutanamide] which is the S,S′-dimer of the API. The crystallization procedure is further described in Table 1.

Data set [6] is described as follows: Tensile strength of square compacts from tri-axial decompression press (Hiestand tablet indices). Conditions: square compacts prepared at a solid fraction of 0.85. As to the method: In order to characterize the deformation mechanism of the API, Hiestand's tablet indices (see, E. N. Hiestand and D. P. Smith, Powder Technology, 38, pp 145-159 (1984) hereby incorporated by reference) were evaluated. The identical procedure as developed by E. N. Hiestand, at the Pharmacia and Upjohn company was adapted for evaluating the deformation properties of the API. In brief, square shaped compacts (1.97 cm^2) were prepared using a tri-axial decompression Loomis Engineering press. This tri-axial press facilitates compression pressure relief in three dimensions as opposed to […] as in the uni-axial press. […] Through tri-axial decompression it is possible to produce virtually flawless compacts. The API was compressed with the procedure describe above to produce compacts having a relative density or solid fraction of 0.85. The compacts were then subjected to tensile strength testing on an Instron stress-strain analyzer at a cross head speed of about 0.8 mm/min. This speed allowed the time constant between the peak stress and 1/e times the peak stress to be a constant of 10 seconds. […]
where, σ is the tensile strength calculated and F is the force required to initiate crack propagation in the compact and l and b are the length and breadth of the compact, respectively. […]

Data set [7] is described as follows: Brittle fracture index (BFI) from compacts with and without a 1 mm hole. Conditions: square compacts; scale 0 to 1. As to the method: Similarly, the tensile strength is determined for square compacts that are prepared with a magnified flaw using the tri-axial decompression press and a upper punch having a 1 mm diameter pin spring loaded on its surface. This pin facilitates the introduction of a 1 mm diameter hole in the center of the compact. The tensile strength values of the compacts with and without a hole are used to evaluate the brittle fracture index (BFI) of the material as shown below: [formula]
Where, σT is the tensile strength of the square compacts without a hole in the center and σTo is the tensile strength of the square compacts with a 1 mm hole in the center that acts as a stress concentrator.

The nature of data set [8]: Dynamic indentation hardness by pendulum impact apparatus. Conditions: square compacts without a hole. As for the experimental part: The square compacts (without a hole) are then subjected to a dynamic indentation hardness evaluation using a pendulum impact apparatus as described in Tablet Indices^11. The velocity at which the pendulum sphere impacts the compact as well as the speed with which the pendulum sphere is rebound from the compact is recorded. The indentation made on the compact surface by the procedure described above is measured with a surface analyzer that facilitates computation of the chordal radius of the indentation. These measurements are then used to calculate the dynamic indentation hardness of the material using the equation described below: [formula]
where, m and r are the mass and radius of the indenting sphere, respectively and hi and hr are the inbound and rebound heights, respectively and a is the chordal radius of the indentation created on the compact surface. G is acceleration due to gravity. […] This value is much lower than that of the standard compressible filler, Avicel PH 102 that has a hardness of 352 MN/m^2. […] The hardness value for Lot # 2 was 52.9 MN/M^2±8.2 MN/M^2. The increase in hardness of the material from the optimized crystallization process is not significant enough to change the conclusion drawn earlier about its ductility.

In the case of `CNC(=O)[C@@H](NC(=O)[C@H](CC(C)C)NC(=O)[C@@H](S)CCN1C(=O)N(C)C(C)(C)C1=O)C(C)(C)C` [API, N-[(2S)-2-Mercapto-1-oxo-4-(3,4,4-trimethyl-2,5-dioxo-1-imidazolidinyl)butyl]-L-leucyl-N,3-dimethyl-L-valinamide], the agglomerate size in data set [1] (high supersaturation) is 200-300 μm; in data set [1] (low supersaturation), 500-1000 μm. Moreover, the “change of crystallinity after milling (X-ray diffraction patterns)” value in data set [2] is “reduction in the crystallinity”. The compactability is listed as 12.3 kPa/MPa in data set [3] (1% ground seeds, with sonication); 7.0 kPa/MPa in data set [3] (50-g sample, 1.5% ball-milled seeds); 14.4 kPa/MPa in data set [3] (50-g sample, 4% ground seeds); 12.6 kPa/MPa in data set [3] (50-g sample, 5% ground seeds). Also, the product compactability worked out at 4.2 kPa/MPa in data set [3] (50-g sample, 1% AirJet-milled seeds); 5.9 Kpa/MPa in data set [3] (50-g sample, 1% ball-milled seeds); 10.5 kPa/MPa in data set [3] (50-g sample, 1% ground seeds, without sonication); 5.3 kPa/MPa in data set [3] (50-g sample, 1% seeds crystallized from a ground seeded batch). The “improvement in compactability over material generated by the current process” value in data set [3] (50-g sample, 4% ground seeds) is given as ~10 fold. The compound also returned a powder blend compactability in data set [3] (50 g scale, crystallization seeded with 5% large agglomerates) of 3.65 kPa/MPa. For the same compound, the “compactability of the powder blend” value in data set [3] (100 Kg scale, "as is" material at 1.5% seed loading) is recorded as 2.8-3.4 kPa/Mpa; in data set [3] ("as is" seed, 0.1% seed loading (representative)) it was 1.4-1.7 kPa/Mpa. In addition, in data set [3] (milled API, FIG. 3), the “change of compactability after milling” value is “gain in compactability”. Besides, the bonding index in data set [4] is listed as 0.025±0.001.
In the case of `CNC(=O)[C@@H](NC(=O)[C@H](CC(C)C)NC(=O)[C@@H](S)CCN1C(=O)N(C)C(C)(C)C1=O)C(C)(C)C` [Form 4, N-[(2S)-2-Mercapto-1-oxo-4-(3,4,4-trimethyl-2,5-dioxo-1-imidazolidinyl)butyl]-L-leucyl-N,3-dimethyl-L-valinamide], the “stability of crystal structure in the solid state” value in data set [5] is on record as “did not transform/decompose to other crystalline structures in the solid state”.
In data set [6] (listed as MMPI Lot# 1), `CNC(=O)[C@@H](NC(=O)[C@H](CC(C)C)NC(=O)[C@@H](S)CCN1C(=O)N(C)C(C)(C)C1=O)C(C)(C)C` [Lot# 1, N-[(2S)-2-Mercapto-1-oxo-4-(3,4,4-trimethyl-2,5-dioxo-1-imidazolidinyl)butyl]-L-leucyl-N,3-dimethyl-L-valinamide] registered a tensile strength of 90.46 N/cm^2. For the same compound, in data set [7], the “brittle fracture index (BFI)” value is given as 0.14±0.03. In addition, the dynamic indentation hardness in data set [8] was found to be 35.8 MN/m^2.
Compound `CNC(=O)[C@@H](NC(=O)[C@H](CC(C)C)NC(=O)[C@@H](S)CCN1C(=O)N(C)C(C)(C)C1=O)C(C)(C)C` [Lot# 2, N-[(2S)-2-Mercapto-1-oxo-4-(3,4,4-trimethyl-2,5-dioxo-1-imidazolidinyl)butyl]-L-leucyl-N,3-dimethyl-L-valinamide] returned a tensile strength in data set [6] of 181.90 N/cm^2. Further, the “brittle fracture index (BFI)” value in data set [7] is on record as 0.20±0.02. In data set [8], the dynamic indentation hardness was determined as 52.9 MN/m^2. Further, the bonding index in data set [4] is given as 0.034±0.001.
